Experimental data published in paper PMC2410175, “A phase I and pharmacological study of the matrix metalloproteinase inhibitor BB-3644 in patients with solid tumours” (British Journal of Cancer, 2004).
Read-outs that look alike come from different tables or passages of the source.

Legend:
gelatinase A = settings: background data, no reference given; read-out: IC50 against gelatinase A; cited from earlier work
[1] = test system: MDA-435 human breast carcinoma; parameters: method as in British Biotech, unpublished data; settings: MDA-435 human breast carcinoma model; ref British Biotech, unpublished data; cited from earlier work
solid tumours = assay: Assessment of response in the phase I study; format: in vivo, patients
Experimental: Disease assessment was performed at baseline and repeated at 84 days or at withdrawal from the study. Patients were reviewed 4 weeks after withdrawal from the study.
Response was formally assessed radiologically after 3 months of therapy.

B16-BL6 murine melanoma = test system: B16-BL6 murine melanoma; parameters: method as in British Biotech, unpublished data; settings: B16-BL6 murine melanoma model; ref British Biotech, unpublished data; cited from earlier work
enkephalinase = settings: background data, no reference given; read-out: IC50 against enkephalinase; cited from earlier work
[2] = test system: processing of cell-bound TNF-α; settings: relative to marimastat; background data, no reference given; cited from earlier work
[3] = rhesus monkey, in vivo; cited from earlier work
[4] = cited from earlier work
clinical = settings: human, in vivo; for half-life: T1/2; for AUC(0-t): AUC0–24
Experimental: Blood samples were collected in heparinised tubes before treatment, every 15 min for 2 h, at 2 h 30 min, 3, 4, 6, 8, 10 and 24 h on days 1 and 14 for the measurement of BB-3644. Blood samples were kept on ice. They were centrifuged at 4°C (1500 g for 10 min) within 30 min of collection. The supernatant plasma was collected and frozen at −70°C or cooler, until sent for analysis. Samples were analysed centrally in the Department of Drug Metabolism and Pharmacokinetics at British Biotech, UK.
Samples were analysed for BB-3644 content using a validated reverse-phase HPLC method with mass spectrometric detection. The limit of quantification was 1 ng ml^−1. The data were analysed using WinNonlin v2.1 Standard version (Pharsight Corporation, USA). PK parameters were derived from individual plasma concentration–time data, using noncompartmental analysis.
On the days of PK sampling, only the morning dose of BB-3644 was taken.

[5] = parameters: method as in British Biotech, unpublished data; settings: marmosets; ref British Biotech, unpublished data; cited from earlier work
[6] = test system: HODP.IP rat mammary carcinoma cells; parameters: method as in British Biotech, unpublished data; settings: lung colonisation model, ref British Biotech, unpublished data; cited from earlier work
collagenase-3 = settings: background data, no reference given; read-out: IC50 against collagenase-3; cited from earlier work
[7] = Phase I dose-escalation study: DLT, MTD and adverse events
Experimental: Patients over the age of 18 were required to be of ECOG performance status 0, 1 or 2, and to have a predicted survival of at least 3 months.
This was a phase I, open-label, dose-escalation study. BB-3644 was supplied as capsules comprising 5, 10, 20 and 40 mg BB-3644 (with maize starch, colloidal silica, magnesium stearate and lactose) by British Biotech Pharmaceuticals Ltd, UK. BB-3644 was administered orally twice daily for 84 days to cohorts of patients at doses 5, 10, 20 and 30 mg. […] Dose-limiting toxicity was defined as ‘an adverse reaction likely to be caused by the study drug and unlikely to be attributed to concurrent disease or other drugs or chemicals’. Essentially, any toxicity graded by CTC criteria as at least grade II was considered to be a DLT, as this could preclude chronic oral administration of a drug. If one patient experienced DLT, the cohort size was increased to six patients for that dose level. Further dose escalation was performed, provided that no more than […] patients experienced DLT by day 28. Nine patients were to be treated at the highest dose level. Patients experiencing DLT were eligible to continue treatment at a reduced dose following resolution of toxicity.
Physical examination, chest radiograph, haematology and serum chemistry were checked at baseline, every 4 weeks and at study termination. […] Patients were also reviewed by an opthalmologist at these times, to check the visual acuity, visual fields, and examine the whole eye and the fundi.

[8] = ref Wojtowicz-Praga et al, 1998, cited from earlier work
[9] = of the 13 patients that completed 12 weeks of therapy

In the case of `CO[C@H](C(=O)NO)[C@@H](CC(C)C)C(=O)N[C@H](C(=O)Nc1ccccn1)C(C)(C)C` [BB-3644], the IC50 (gelatinase A) is given as 80 nM, the “activity in inhibiting tumour growth” value [1] is given as “activity in inhibiting tumour growth” and the “therapeutic activity, overall conclusion” value (solid tumours; 22 patients, 5 to 30 mg bd) is given as “no evidence of beneficial therapeutic activity”. The “patients with progressive disease radiologically” value (solid tumours; [9]) was 11, the “patients with stable disease radiologically” value (solid tumours; [9]) was “two” and the “activity in inhibiting tumour growth” value (B16-BL6 murine melanoma) was “activity in inhibiting tumour growth”. The IC50 (enkephalinase) was 40 nM, the “fold more active than marimastat in inhibiting the processing of cell-bound TNF-α” value [2] was > 10 fold and the principal toxicity [3] was “cell debris in the gall bladder, with mucosal erosions and epithelial hyperplasia”. For the same compound, the “toxicity at higher doses” value ([4]; dog, in vivo) was “Encephalopathy”, the ocular changes ([4]; dogs, ref British Biotech, unpublished data) was “conjunctival hyperaemia, chemosis, corneal stromal limbal vascularisation and diffuse corneal haze and flocculation” and the “time to mean maximal concentration, range over dose levels” value (clinical) was 30 to 90 min. The T1/2 (clinical; 5 mg) was 4 h, the Tmax (clinical; 5 mg) was 1 h and the half-life (clinical; 5 mg) was 2 h. It also gave a Tmax (clinical; 5 mg, Tmax) of 0.75 h, a Cmax (clinical; 10 mg) of 179 ng/mL and a T1/2 (clinical; 10 mg) of 2.5 h. For the same compound, the Tmax (clinical; 10 mg) was 1 h, the Cmax (clinical; 10 mg, Cmax) was 114 ng/mL and the half-life (clinical; 10 mg) was 1.5 h. For the same compound, the Tmax (clinical; 10 mg, Tmax) was 0.5 h, the “AUC0–24” value (clinical; 20 mg) was 1248 ng·h/mL and the Cmax (clinical; 20 mg) was 282 ng/mL. The T1/2 (clinical; 20 mg) was 3 h, the Tmax (clinical; 20 mg) was 0.75 h and the AUC(0-t) (clinical; 20 mg) was 781 ng·h/mL. It also gave a Cmax (clinical; 20 mg, Cmax) of 232 ng/mL, a half-life (clinical; 20 mg) of 1.5 h and a Tmax (clinical; 20 mg, Tmax) of 0.5 h. The “AUC0–24” value (clinical; 30 mg) was 4401 ng·h/mL, the Cmax (clinical; 30 mg) was 536 ng/mL and the Tmax (clinical; 30 mg) was 1.75 h. It also gave an AUC(0-t) (clinical; 30 mg) of 2520 ng·h/mL, a Cmax (clinical; 30 mg, Cmax) of 315 ng/mL and a half-life (clinical; 30 mg) of 6 h. The Tmax (clinical; 30 mg, Tmax) was 1.5 h, the joint toxicity [5] was “induced inflammation of joint ligaments and tendons” and the principal toxicity [5] was “cell debris in the gall bladder, with mucosal erosions and epithelial hyperplasia”. The “tendinitis of the hind limbs” value [6] was “did not cause tendinitis of the hind limbs”, the IC50 (collagenase-3) was 3 nM and the “maximum tolerated dose (MTD)” value ([7]; 28 days of oral treatment) was 20 mg bd. For the same compound, the “maximum tolerated dose (MTD)” value ([7]; chronic oral dosing (>28 days, up to 84 days)) was 5 mg bd, the “patients with musculoskeletal DLTs (number)” value ([7]; human, in vivo, 84 days) was 14 and the “patients with musculoskeletal DLTs (share)” value ([7]; human, in vivo, 84 days) was 64%. For the same compound, the “SAE considered possibly related to the study drug” value ([7]; in vivo) was “thromboembolic episodes”, the “ophthalmological or gall bladder-related toxicity” value ([7]; in vivo) was “no significant opthalmological or gall bladder-related toxicity” and the “patients who developed phlebitis” value ([7]; in vivo) was “Two”. The “patients with dose-limiting malaise (NCI CTC toxicity >grade 1)” value ([7]; in vivo) was “Two” and the “dose-limiting toxicity (DLT), nature” value ([7]; in vivo, po) was “musculoskeletal pain”.

For `CNC(=O)[C@@H](NC(=O)[C@H](CC(C)C)[C@H](O)C(=O)NO)C(C)(C)C` [marimastat], the treatment-limiting toxicities ([8]; clinical testing of marimastat, Tierney et al, 1999, Evans et al, 2001) is given as “Musculoskeletal pain and inflammation” and the “AUC achieved at the MTD” value ([8]; phase I studies of marimastat) is given as 2623 ng·h/mL.
